Data as given in patent publication US20140105871A1, “Use Of Mesenchymal Stem Cells For The Improvement Of Affective And Cognitive Function” (priority 2011, published 2014).

Experiments:
[1] = tested on: murine model of schizophrenia (ketamine-injected female ICR pups); test: Pre-pulse inhibition (PPI) in ketamine-injected pups, murine model of schizophrenia; assay type: in vivo, mouse; conditions: Example 6, intraperitoneal 12 days course
Method: Prepulse inhibition (PPI) test was conducted in startle device (Hamilton Kinder, Poway, Calif.) that consists of a plexiglas cylinder (10×10×5 cm) adapted for mouse size in order to restrict a mouse to stand up on its hind legs and enclosed in a ventilated sound attenuated compartment with a high-frequency loudspeaker producing all acoustic stimuli. The background noise was 65 dB. Movements within the cylinder were detected and transduced by a piezoelectric platform and recorded on a computer. Each trial was initiated with 5 minutes acclimation period followed by five startle pulse alone (ASR) successive testing trials and finishing with final five startle pulses alone. Auditory testing included startle pulse alone (ASR, 120 dB/40 msec) plus three different prepulse sessions in which either 20-msec-long 70, 74 and 82 dB stimuli were preceded the 120 dB pulse by 100 msec, with the alternate background noise measurement set as the baseline movements in the cylinder. All trials followed in a pseudo-random order and the average inter-trial interval (ITI) was […]. PPI was defined as the percentage of the decreased in the ratio between the startle magnitude in the presence of the prepulse and the magnitude in the absence of the prepulse (100−(100× magnitude on prepulse+pulse trial/magnitude on pulse trial)). […]

[2] = tested on: cell suspension of rat neonatal brain tissue; test: Neurosphere growth in conditioned medium of pre-treated MSC cultures (neurogenic potential in vitro); assay type: cell-based
Method: 70-80% confluent cultures of bone marrow derived MSCs were cultured in vitro in Dulbecco's modified Eagle's medium (DMEM) without Fetal Bovine Serum (FBS) with and supplemented with the addition of one of the following compounds: None, LiCl (2 mM), PACAP27 (20 nM) or DHEA (1 mM). After 3 days medium was changed with fresh ingredients and cultures were allowed to grow for an additional 24 hours. After 24 hours plates were washed twice with PBS and conditioning medium (C.M.) containing none of the above compounds was placed for additional 24 hours. Conditioned medium harvested from these cultures after 24 hours was filtered in 0.2 um filter supplemented with 1% B27 nutrients mix and used as culture medium for a cell suspension of rat neonatal brain tissue in 24 well plates (10^4 cells/well). […]
The number of developing neurospheres in each conditioned medium type was counted after 5 days of culture and provided an indication of the neurogenic potential of the MSCs culture from which the CM was harvested. […]
The number of developing neurospheres in each conditioned medium type was counted and provided an indication of the neurogenic potential of the MSCs culture from which the C.M. was harvested.

CN1CCN(C2=Nc3cc(Cl)ccc3Nc3ccccc32)CC1 [Clozapine, clozapine]
PPI vs Ket control ([1]; 2.5 months after the treatment course ended, FIG. 17): no significant effect | PPI vs Ket control ([1]; 6 weeks after the course ended, FIG. 16): no significant effect

[Cl-].[Li+] [LiCl, lithium chloride]
neurogenic activity of the MSCs, in vitro ([2]; incubation of MSCs in culture with the agent): enhanced the neurogenic activity

HSDGIFTDSYSRYRKQMAVKKYLAAVL [PACAP (P27), fragment of 27 amino acid residues corresponding to amino acids 132-158 of human PACAP]
number of developing neurospheres ([2]; C.M. of MSC cultures treated with the agent (PACAP27 20 nM, DHEA 1 mM) vs non-treated cultures (C.M. alone), FIG. 2): clear advantage
